Data reported in US20210277009A1, “PRMT5 INHIBITORS” (Merck Sharp & Dohme Corp., priority 2018, published 2021).
Like-named read-outs stand apart in the source and are kept apart here.

Experiments:
[1] = target: T1, PRMT5-MEP50 enzyme complex (Homo sapiens, UniProt O14744); test: PRMT5-MEP50 Enzyme Methylation Assay; assay type: biochemical
T1 construct: 1.25 nM of Full-length (FL)-PRMT5-MEP50 enzyme complex; made in house; host or cells: baculovirus-transfected Sf21 cells
Method: PRMT5-MEP50 biochemical assay is a direct measurement of the methylation activity of the enzyme complex on a short peptide substrate derived from the N-terminus of H4 histone. Methylation experiment is performed with recombinant PRMT5-MEP50 protein complex. The assessment of inhibitory effect of small molecules is measured by tire effectiveness of the compounds to inhibit tins reaction (EC50).
In this assay, the potency (EC50) of each compound was determined from a twenty-point (1:2 serial dilution; top compound concentration of 100000 nM) titration curve using the following outlined procedure. To each well of a white ProxiPlus 384 well-plate, 100 nL of compound (1% DMSO in final assay volume of 10 μL) was dispensed, followed by the addition of 8 μL of 1× assay buffer (50 mM Bicine pH 8.0, 1 mM DTT, 0.004% Tween20, 0.01% BSA) containing 1.25 nM of Full-length (FL)-PRMT5-MEP50 enzyme complex (recombinant proteins from baculovirus-transfected Sf21 cells: FL-PRMT5; MW=[…] and FL-MEP50; MW=38614) and 1 μL of 150 μM S-(5′-Adenosyl)-L-Methionine Chloride (SAM). Plates were sealed and placed in a 37° C. humidified chamber for a 60 minutes pre-incubation with compound. Subsequently, each reaction was initiated by the addition of 1 μL 1× assay buffer containing 750 nM biotinylated H4R3(Mel) peptide. The final reaction in each well of 10 μL consists of 1.0 nM PRMT5-MEP50, 75 nM biotinylated-peptide, and […] SAM. Methylation reactions were allowed to proceed for 150 minutes in a sealed plate at 37° C. Reactions were immediately quenched by the addition of 1 μL of 5% formic acid. Plates were then frozen and shipped to SAMDITM Tech Inc. to determine the percent conversion from H4R3(Mel) to H4R3(Me2). Dose-response curves were generated by plotting percent effect (% product conversion; Y-axis) vs. Log 10 compound concentrations (X-axis). EC50 values were determined by non-linear regression according to models for either sigmoidal (4 parameters) or biphasic (7 parameters) dose-response curves.

[2] = tested on: symmetric dimethylation of arginine (SDMA) of PRMT5 substrates in MCF-7 cells; test: PRMT5 Cell Target Engagement (TE) Assay; assay type: cell-based; details: Homo sapiens, MCF7, 72 h, treated for 3 days, nuclear SDMA by high content imaging, top concentration 10000 nM
From the text: The PRMT5 TE assay is a biomarker assay for identifying compounds that inhibit symmetric dimethylation of arginine (SDMA) of PRMT5 substrates. The following substrates have been reported for PRMT5: histone H2A and H4 R3, Histone H3 R2, Histone H3 R8, spliceosome Sm proteins, ribosomal protein RPS10, p53, FEN1, nudeoplasmin, nucleolin, EGFR and EBNA. The assay will focus on detecting symmetrically dimethylated nuclear proteins using high content imaging technology. Detection of the expression of symmetrically dimethylated nuclear proteins is through a mixture of primary rabbit monoclonal antibodies to SDMA (CST 13222), which in turn recognized by an Alexafluor 488 dye-conjugated anti-rabbit IgG secondary antibody. The IN Cell Analyzer 2200 or Opera-Phenix measures nuclear Alexafluor 488 fluorescent dye intensity that is directly related to the level of expression of symmetrically dimethylated nuclear proteins at the single cell level. Nuclear AF488 dye intensities are compared to the mean value for DMSO treated cells (MIN) to report percent of inhibition for each compound-treated well.
In this assay, the cell potency (EC50) of each compound was determined from a ten point (1:3 serial dilution; top compound concentration of 10000 nM) titration curve using the following outlined procedure. Each well of a BD falcon collagen coated black/clear bottom 384-well plate was seeded with 4000 MCF-7 cells in 30 μl media and allowed to attach for 5 h. Media is ATCC-formulated Eagle's Minimum Essential Medium, Catalog No. 30-2003. To make the complete growth medium, the following components were added to the base medium: 0.01 mg/ml human recombinant insulin; fetal bovine serum to a final concentration of 10%. Additional 30 μl of media containing 2× compounds were added to each well. Cells were treated for 3 days in 37° C. CO2 incubator. On day 3, cells were fixed with Cytofix, permeablized with 0.4% Triton-X-100/Cytofix, and washed with D-PBS without Ca/Mg. Cells were blocked with Licor Odessey blocking reagent for 1 h at room temperature, followed by incubation with anti-SDMA (1:1000) antibody at 4° C. overnight. 1° antibody was removed, followed by three washings with DPBS without Ca/Mg and 0.05% Tween20. Hoechst (5 μg/ml), Cell Mask deep stain (1:2000) and Alexa488-conjugated goat anti-rabbit IgG (2 μg/mL) was added for 1 hour at room temperature. A final washing step (three washes) was performed before sealing plate for imaging on In Cell Analyzer 2200 or Opera-Phenix. Images from analyzer were uploaded to Columbus (at WP or BOS) for image analysis. IC50 values were determined by 4 parameters robust fit of percent fluorescence units vs. (Logic) compound concentrations.

[3] = second EC50 of 7 parameters biphasic model, read-out: Enzyme Methylation Assay (EC50_2)
[4] = single EC50 from 4 parameters single site sigmoidal model, or first EC50 of 7 parameters biphasic model, 1.0 nM PRMT5-MEP50, H4R3(Me1) peptide, SAM, read-out: Enzyme Methylation Assay (EC50 or EC50_1)

T1 sequence (O14744 whole entry): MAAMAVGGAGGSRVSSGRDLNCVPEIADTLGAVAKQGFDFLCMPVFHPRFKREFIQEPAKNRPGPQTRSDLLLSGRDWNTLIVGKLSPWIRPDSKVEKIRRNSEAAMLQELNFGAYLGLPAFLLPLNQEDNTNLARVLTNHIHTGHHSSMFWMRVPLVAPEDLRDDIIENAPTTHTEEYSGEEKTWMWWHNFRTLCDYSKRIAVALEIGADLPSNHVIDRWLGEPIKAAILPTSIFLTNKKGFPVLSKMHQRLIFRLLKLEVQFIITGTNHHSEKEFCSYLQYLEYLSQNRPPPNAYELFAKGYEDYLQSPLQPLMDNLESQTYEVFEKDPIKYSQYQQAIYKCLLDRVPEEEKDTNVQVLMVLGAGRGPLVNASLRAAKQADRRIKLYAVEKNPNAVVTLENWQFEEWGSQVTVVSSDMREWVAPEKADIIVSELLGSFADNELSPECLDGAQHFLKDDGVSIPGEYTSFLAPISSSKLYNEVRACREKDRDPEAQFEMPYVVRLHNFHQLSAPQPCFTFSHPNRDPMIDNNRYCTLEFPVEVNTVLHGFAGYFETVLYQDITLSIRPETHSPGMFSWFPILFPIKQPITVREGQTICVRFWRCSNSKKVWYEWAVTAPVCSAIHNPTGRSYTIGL
T1 sequence (Q9BQA1 whole entry partner): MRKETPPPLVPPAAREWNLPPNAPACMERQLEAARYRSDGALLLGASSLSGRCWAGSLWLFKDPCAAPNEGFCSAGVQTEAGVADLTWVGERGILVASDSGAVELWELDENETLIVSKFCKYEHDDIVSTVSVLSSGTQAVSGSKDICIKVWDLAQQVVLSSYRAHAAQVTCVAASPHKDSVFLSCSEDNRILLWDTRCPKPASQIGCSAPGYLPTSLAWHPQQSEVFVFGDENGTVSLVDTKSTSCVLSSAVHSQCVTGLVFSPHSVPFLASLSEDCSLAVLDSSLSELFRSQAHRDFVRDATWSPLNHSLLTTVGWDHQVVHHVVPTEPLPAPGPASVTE

Row | Compound | EC50 [1, 3] | EC50 [1, 4] | EC50 [2]
1 | Cc1ncnc2c1ccn2[C@@H]1S[C@@H](CCc2ccc3cc(C(F)F)c(N)nc3c2)[C@@H](O)[C@H]1O [Example 41, (2S,3S,4R,5R)-2-(2-(2-amino-3-(difluoromethyl)quinolin-7-yl)ethyl)-5-(4-methyl-7H-pyrrolo[2,3-d]pyrimidin-7-yl)tetrahydrothiophene-3,4-diol] | 661 nM | 1.2 nM | 123 nM
2 | Nc1nc2cc(CC[C@@H]3S[C@@H](n4ccc5c(N)ncnc54)[C@H](O)[C@@H]3O)ccc2cc1Cl [Example 42, (2S,3S,4R,5R)-2-(2-(2-amino-3-chloroquinolin-7-yl)ethyl)-5-(4-amino-7H-pyrrolo[2,3-d]pyrimidin-7-yl)tetrahydrothiophene-3,4-diol] | – | 0.8 nM | 2.4 nM
3 | Nc1nc2cc(CC[C@H]3S[C@@H](n4ccc5c(N)ncnc54)[C@H](O)[C@@H]3O)ccc2cc1Cl [Example 43, (2R,3S,4R,5R)-2-(2-(2-amino-3-chloroquinolin-7-yl)ethyl)-5-(4-amino-7H-pyrrolo[2,3-d]pyrimidin-7-yl)tetrahydrothiophene-3,4-diol] | – | 0.7 nM | 2.4 nM

These reach a lower EC50 [1, 4]. Values come first.

Row | EC50 [1, 3] | EC50 [1, 4] | EC50 [2] | Compound
4 | 16.2 nM | 0.4 nM | 9.5 nM | Nc1nc2cc(CC[C@H]3S[C@@H](n4cc(F)c5c(N)ncnc54)[C@H](O)[C@@H]3O)ccc2cc1Br [Example 37, (2R,3S,4R,5R)-2-(2-(2-amino-3-bromoquinolin-7-yl)ethyl)-5-(4-amino-5-fluoro-7H-pyrrolo[2,3-d]pyrimidin-7-yl)tetrahydrothiophene-3,4-diol]
5 | – | 0.5 nM | 7.2 nM | Cc1nc(N)nc2c1ccn2[C@@H]1S[C@H](CCc2ccc3cc(Br)c(N)nc3c2)[C@@H](O)[C@H]1O [Example 38, (2R,3S,4R,5R)-2-(2-(2-amino-3-bromoquinolin-7-yl)ethyl)-5-(2-amino-4-methyl-7H-pyrrolo[2,3-d]pyrimidin-7-yl)tetrahydrothiophene-3,4-diol]
